Measurements: patent US20230165831A1, “METHOD AND COMPOSITION FOR RENDERING CANCER CELLS SUSCEPTIBLE TO TREATMENT BY TARGETED ONCOGENETIC DRIVERS” (IMPACT BIOLIFE SCIENCE, INC., priority 2021, published 2023)
Like-named read-outs stand apart in the source and are kept apart here.

Tests used:
[1] = test system: glioblastoma line U87MG cells; assay: CTG (CellTiter-Glo) cell viability assay, 6×6 combo matrix, 72 h, U87MG; conditions: Homo sapiens, U-87 MG;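 further: U87MG cells seeded at 2000 per well, exposed 72 h, viability read by CellTiter-Glo luminescence, inhibition expressed relative to vehicle-treated wells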
[2] = test system: Liver cancer line SK-HEP-1 cells; assay: CTG (CellTiter-Glo) cell viability assay, 6×6 combo matrix, 72 h, SK-Hep-1; conditions: Homo sapiens;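 further: luminescent signal read after 72 h compound exposure at 37 °C under 5% CO2, with medium-only wells serving as blank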
Experimental: (§1) To measure the cell inhibition effect of compounds and synergy effect of test articles on ten (10) cell lines using standard CTG assay.
(§2) 7) Using complete cell medium, adjust the volume of the suspension to achieve a cell concentration.
(§3) b. A549, T47D, SK-OV-3, MKN45, SK-Hep-1, HT-29, Capan-1, 786-O and LNCaP cell line, for compounds and vehicle groups, the seeding density of cell lines is 3000 cells/80 µL per well. For blank groups, add 100 µL medium. For PBS groups, add 100 µL PBS.
(§4) 8) Incubate the U87MG, A549, T47D, SK-OV-3, MKN45, SK-Hep-1, HT-29, Capan-1, 786-O and LNCaP cells overnight at 37° C./5% CO2.
(§5) Solid compound of cis-platinum was solubilized in PBS to a stock solution of 3.333 mM.
(§6) Final volume is 100 µL per well at this point.
(§7) 5) Incubate the plates at 37° C./5% CO2 for 72 hours.
(§8) 1) Incubate the plates at room temperature and away from light for 30 minutes.
(§9) 3) Add 100 µL /well of CellTiter-Glo® Reagent in each well. Avoid light.
(§10) 4) Mix contents for 2 minutes on an orbital shaker.
(§11) 5) Incubate plate at room temperature for 10 minutes to stabilize the luminescent signal.
6) Read plates in Envision.

[3] = test system: prostate adenocarcinoma line LNCap cells; assay: CTG (CellTiter-Glo) cell viability assay, 6×6 combo matrix, 72 h, LNCaP; conditions: Homo sapiens, LNCaP;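 further: luminescence signal read after adding CellTiter-Glo reagent, with cells exposed to compounds for 72 h at 37 °C under 5% CO2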
[4] = test system: prostate adenocarcinoma line LNCap cells;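 further: luminescence signal read after adding CellTiter-Glo reagent, with cells exposed to compounds for 72 h at 37 °C under 5% CO2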
[5] = test system: colorectal cancer line HT29 cells; assay: CTG (CellTiter-Glo) cell viability assay, 6×6 combo matrix, 72 h, HT29; conditions: Homo sapiens, HT-29, read-out: Relatively Cell inhibition of vehicle control(%);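 further: cells exposed to compounds for 72 hours at 37 °C under 5% CO2, then viability read as luminescence after adding CellTiter-Glo Reagent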
[6] = test system: lung adenocarcinoma line A549 cells; assay: CTG (CellTiter-Glo) cell viability assay, 6×6 combo matrix, 72 h, A549; conditions: Homo sapiens, A549, read-out: Relatively Cell inhibition of vehicle control(%);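 further: luminescent ATP readout with CellTiter-Glo after compound exposure, used to assess growth inhibition and combination synergy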
[7] = test system: breast cancer line T47D cells; assay: CTG (CellTiter-Glo) cell viability assay, 6×6 combo matrix, 72 h, T47D; conditions: Homo sapiens;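 further: luminescence read-out after 72 h at 37 °C under 5% CO2, with medium-only wells as blanks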
[8] = test system: kidney cancer line 786-O cells; assay: CTG (CellTiter-Glo) cell viability assay, 6×6 combo matrix, 72 h, 786-O; conditions: Homo sapiens, 786-0, read-out: Relatively Cell inhibition of vehicle control;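 further: luminescence read-out after adding CellTiter-Glo reagent, with cells incubated at 37 °C under 5% CO2 during compound exposure, part of a ten cell line synergy study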
Experimental: as §1, §2, §3, §4, §5, §6, §7, §8, §9, §10, §11
6) Read plates in Envision.

[9] = test system: breast cancer line T47D cells;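 further: luminescence read-out after 72 h at 37 °C under 5% CO2, with medium-only wells as blanks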
[10] = test system: Liver cancer line SK-HEP-1 cells;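 further: luminescent signal read after 72 h compound exposure at 37 °C under 5% CO2, with medium-only wells serving as blank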
Experimental: as §1, §2, §3, §4, §5, §6, §7, §8, §9, §10, §11
6) Read plates in Envision.

[11] = test system: ovarian cancer line SK-OV3 cells;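 further: luminescent signal read after CellTiter-Glo addition, cells exposed to compounds for 72 h at 37 °C under 5% CO2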
[12] = test system: kidney cancer line 786-O cells;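 further: luminescence read-out after adding CellTiter-Glo reagent, with cells incubated at 37 °C under 5% CO2 during compound exposure, part of a ten cell line synergy study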
Experimental: as §1, §2, §3, §4, §5, §6, §7, §8, §9, §10, §11
6) Read plates in Envision.

COc1cccc2c1C(=O)c1c(O)c3c(c(O)c1C2=O)C[C@@](O)(C(=O)CO)C[C@@H]3O[C@H]1C[C@H](N)[C@H](O)[C@H](C)O1 [doxorubicin]
inhibition at 0.08 µM ([1]; 72 h, read-out: Relatively Cell inhibition of vehicle control(%), U87MG, 80 nM doxorubicin only (LB-1 0), 72 h): 50%
inhibition at 0.4 µM ([1]; 72 h, read-out: Relatively Cell inhibition of vehicle control(%), U87MG, 400 nM doxorubicin only (LB-1 0), 72 h): 91.3%
inhibition at 2 µM ([1]; 72 h, read-out: Relatively Cell inhibition of vehicle control(%), U87MG, 2000 nM doxorubicin only (LB-1 0), 72 h): 72.4%
inhibition at 10 µM ([1]; 72 h, read-out: Relatively Cell inhibition of vehicle control(%), U87MG, 10000 nM doxorubicin only (LB-1 0), 72 h): 78.4%
inhibition at […] ([1]; read-out: Relatively Cell inhibition of vehicle control(%), doxorubicin 16 nM only): 27.4%
inhibition at 0.08 µM ([1]; read-out: Relatively Cell inhibition of vehicle control(%), doxorubicin 80 nM only): 52.5%
inhibition at 0.4 µM ([1]; read-out: Relatively Cell inhibition of vehicle control(%), doxorubicin 400 nM only): 93%
inhibition at 2 µM ([1]; read-out: Relatively Cell inhibition of vehicle control(%), doxorubicin 2000 nM only): 78.3%
inhibition at 10 µM ([1]; read-out: Relatively Cell inhibition of vehicle control(%), doxorubicin 10000 nM only): 80.8%
inhibition at […] ([2]; SK-HEP1, read-out: Relatively Cell inhibition of vehicle control, doxorubicin 16 nM only (myricetin table)): 6.89%
inhibition at 0.08 µM ([2]; SK-HEP1, read-out: Relatively Cell inhibition of vehicle control, doxorubicin 80 nM only (LB-1 table)): 31.3%
inhibition at 0.08 µM ([2]; SK-HEP1, read-out: Relatively Cell inhibition of vehicle control, doxorubicin 80 nM only (myricetin table)): 25.5%
inhibition at 0.4 µM ([2]; SK-HEP1, read-out: Relatively Cell inhibition of vehicle control, doxorubicin 400 nM only (LB-1 table)): 66.2%
inhibition at 0.4 µM ([2]; SK-HEP1, read-out: Relatively Cell inhibition of vehicle control, doxorubicin 400 nM only (myricetin table)): 68.5%
inhibition at 2 µM ([2]; SK-HEP1, read-out: Relatively Cell inhibition of vehicle control, doxorubicin 2000 nM only (LB-1 table)): 98.6%
inhibition at 2 µM ([2]; SK-HEP1, read-out: Relatively Cell inhibition of vehicle control, doxorubicin 2000 nM only (myricetin table)): 98.5%
inhibition at 10 µM ([2]; SK-HEP1, read-out: Relatively Cell inhibition of vehicle control, doxorubicin 10000 nM only (LB-1 table)): 99.4%
inhibition at 10 µM ([2]; SK-HEP1, read-out: Relatively Cell inhibition of vehicle control, doxorubicin 10000 nM only (myricetin table)): 99.4%
inhibition at […] ([3]; read-out: Relatively Cell inhibition of vehicle control(%), doxorubicin 16 nM only (myricetin plate)): 2.69%
inhibition at 0.08 µM ([3]; read-out: Relatively Cell inhibition of vehicle control(%), doxorubicin 80 nM only (LB-1 plate)): 29.9%
inhibition at 0.08 µM ([3]; read-out: Relatively Cell inhibition of vehicle control(%), doxorubicin 80 nM only (myricetin plate)): 31.7%
inhibition at 0.4 µM ([3]; read-out: Relatively Cell inhibition of vehicle control(%), doxorubicin 400 nM only (LB-1 plate)): 65.2%
inhibition at 0.4 µM ([3]; read-out: Relatively Cell inhibition of vehicle control(%), doxorubicin 400 nM only (myricetin plate)): 67.3%
inhibition at 2 µM ([3]; read-out: Relatively Cell inhibition of vehicle control(%), doxorubicin 2000 nM only (LB-1 plate)): 97.2%
inhibition at 2 µM ([3]; read-out: Relatively Cell inhibition of vehicle control(%), doxorubicin 2000 nM only (myricetin plate)): 97%
inhibition at 10 µM ([3]; read-out: Relatively Cell inhibition of vehicle control(%), doxorubicin 10000 nM only (LB-1 plate)): 87.8%
inhibition at 10 µM ([3]; read-out: Relatively Cell inhibition of vehicle control(%), doxorubicin 10000 nM only (myricetin plate)): 88.9%
inhibition [4]: 7.17%
inhibition at 0.08 µM [5]: 25.6%
inhibition at 0.4 µM [5]: 61.1%
inhibition at 2 µM [5]: 92.3%
inhibition at 10 µM [5]: 79.1%
inhibition at 0.08 µM [6]: 42.2%
inhibition at 0.4 µM [6]: 61.4%
inhibition at 2 µM [6]: 95.8%
inhibition at 10 µM [6]: 94.3%
inhibition at […] ([7]; read-out: Relatively Cell inhibition of vehicle control(%), T47D, 16 nM doxorubicin only (myricetin 0)): 6.02%
inhibition at 0.08 µM ([7]; read-out: Relatively Cell inhibition of vehicle control(%), T47D, 80 nM doxorubicin only (LB-1 0)): 19.3%
inhibition at 0.08 µM ([7]; read-out: Relatively Cell inhibition of vehicle control(%), T47D, 80 nM doxorubicin only (myricetin 0)): 23%
inhibition at 0.4 µM ([7]; read-out: Relatively Cell inhibition of vehicle control(%), T47D, 400 nM doxorubicin only (LB-1 0)): 50.2%
inhibition at 0.4 µM ([7]; read-out: Relatively Cell inhibition of vehicle control(%), T47D, 400 nM doxorubicin only (myricetin 0)): 53.7%
inhibition at 2 µM ([7]; read-out: Relatively Cell inhibition of vehicle control(%), T47D, 2000 nM doxorubicin only (LB-1 0)): 51.6%
inhibition at 2 µM ([7]; read-out: Relatively Cell inhibition of vehicle control(%), T47D, 2000 nM doxorubicin only (myricetin 0)): 59%
inhibition at 10 µM ([7]; read-out: Relatively Cell inhibition of vehicle control(%), T47D, 10000 nM doxorubicin only (LB-1 0)): 45.3%
inhibition at 10 µM ([7]; read-out: Relatively Cell inhibition of vehicle control(%), T47D, 10000 nM doxorubicin only (myricetin 0)): 48.1%
inhibition at 0.08 µM [8]: 24%
inhibition at 0.4 µM [8]: 64.9%
inhibition at 2 µM [8]: 76.2%
inhibition at 10 µM [8]: 83.8%
inhibition [9]: 0.17%
inhibition [10]: 4.48%
inhibition [11]: 2.75%
inhibition [12]: 3.98%
